Test results: patent publication US4873225A, “1-n-(4-amino-3-fluoro-2-hydroxybutyryl)-kanamycins” (Zaidan Hojin Biseibutsu Kagaku Kenkyu Kai, priority 1987, dated 1989)
Converted amounts (≈) assume the structure as drawn. Read-outs that look alike come from different tables or passages of the source.

Experiments:
[1] = system: gram-positive and gram-negative bacteria, including resistant strains; conditions: reported in earlier applications, cited from earlier work
[2] = system: Escherichia coli JR66/W677; test: MIC, standard serial dilution method; type: cell-based; conditions: Escherichia coli, read-out: MIC
Protocol: (§1) Antibacterial activities of each of the abovementioned compounds of the general formula (I) according to this invention were determined by measuring their minimum growth inhibitory concentrations (MIC, mcg/ml) against various bacteria in accordance with a standard serial dilution method. The pH condition of the incubation medium where the MIC data were measured was set at pH 7, unless otherwise specifically indicated. For the sake of comparison, the antibacterial spectra of 1-N-{(S)-4-amino-2-hydroxybutyryl}kanamycin A (i.e., amikacin) and 1-N-{(S)-4-amino-2-hydroxybutyryl}-3,4-dideoxykanamycin B (i.e., habekacin) were also measured in the same manner.
(§2) (a) The antibacterial activities of the compounds of this invention are not decreased practically even under pH conditions of pH […] as compared to their antibacterial activities under neutral conditions of pH 7.

[3] = system: Pseudomonas aeruginosa TI 13; test: MIC, standard serial dilution method; type: cell-based; conditions: Pseudomonas aeruginosa, read-out: MIC
Protocol: as §1, §2

[4] = system: Escherichia coli K-12 LA 290 R55; test: MIC, standard serial dilution method; type: cell-based; conditions: K12LA290R55, pH 7
Protocol: as §1

Escherichia coli JR 225 = test: MIC, standard serial dilution method; type: cell-based; conditions: JR225, pH 7
Protocol: as §1

[5] = system: Escherichia coli K-12 ML 1629; test: MIC, standard serial dilution method; type: cell-based; conditions: K12ML1629, pH 7, read-out: MIC
Protocol: as §1

[6] = system: Pseudomonas aeruginosa A3; test: MIC, standard serial dilution method; type: cell-based; conditions: A3, pH 7, read-out: MIC
Protocol: as §1

[7] = system: Pseudomonas aeruginosa GN 315; test: MIC, standard serial dilution method; type: cell-based; conditions: GN315, pH 7
Protocol: as §1

[8] = system: Staphylococcus aureus 209P; test: MIC, standard serial dilution method; type: cell-based; conditions: pH 7, read-out: MIC
Protocol: as §1

Escherichia coli K-12 = test: MIC, standard serial dilution method; type: cell-based; conditions: K12, pH 7
Protocol: as §1

[9] = system: Corynebacterium bovis 1810; test: MIC, standard serial dilution method; type: cell-based; conditions: Corynebacterium bovis, 1810, pH 7; read-out: MIC
Protocol: as §1

Bacillus subtilis PCI219 = test: MIC, standard serial dilution method; type: cell-based; conditions: PCI219, pH 7, read-out: MIC
Protocol: as §1

Providencia sp. Pv 16 = test: MIC, standard serial dilution method; type: cell-based; conditions: SP.PV16, pH 7, read-out: MIC
Protocol: as §1

[10] = system: Klebsiella pneumoniae 22 #3038; test: MIC, standard serial dilution method; type: cell-based; conditions: pH 7, read-out: MIC
Protocol: as §1

[11] = system: Staphylococcus aureus Ap01; test: MIC, standard serial dilution method; type: cell-based; conditions: AP01, pH 7, read-out: MIC
Protocol: as §1

Serratia marcescens = test: MIC, standard serial dilution method; type: cell-based; conditions: pH 7, read-out: MIC
Protocol: as §1

Mycobacterium 607 = test: MIC, standard serial dilution method; type: cell-based; conditions: Mycobacterium, 607, pH 7; read-out: MIC
Protocol: as §1

Proteus rettgeri GN 311 = test: MIC, standard serial dilution method; type: cell-based; conditions: Providencia rettgeri, GN311, pH 7; read-out: MIC
Protocol: as §1

Escherichia coli K-12 R5 = test: MIC, standard serial dilution method; type: cell-based; conditions: K12R5, pH 7
Protocol: as §1
Infectious diseases by Escherichia coli K-12 R5 tend to increase in recent days. The compounds of this invention are therefore important for the therapeutic treatment of bacterial infections.

mice = test: Acute toxicity against mice; type: in vivo; conditions: orally administered, 150 mg/kg

Row | SMILES | MIC ([2]; JR66/W677, pH 7) [µg/mL] | MIC ([2]; JR66/W677, measured at pH 6) [µg/mL] | MIC ([3]; TI13, pH 7) [µg/mL] | MIC ([3]; TI13, measured at pH 6) [µg/mL] | MIC [4] [µg/mL] | MIC (Escherichia coli JR 225) [µg/mL] | MIC [5] [µg/mL] | MIC [6] [µg/mL] | MIC [7] [µg/mL] | MIC [8] [µg/mL] | MIC (Escherichia coli K-12) [µg/mL] | MIC [9] [µg/mL] | MIC (Bacillus subtilis PCI219) [µg/mL] | MIC (Providencia sp. Pv 16) [µg/mL] | MIC [10] [µg/mL] | MIC [11] [µg/mL] | MIC (Serratia marcescens) [µg/mL] | MIC (Mycobacterium 607) [µg/mL] | MIC (Proteus rettgeri GN 311) [µg/mL] | MIC (Escherichia coli K-12 R5) [µg/mL] | further results
1 | NC[C@H]1O[C@H](O[C@H]2[C@H](O)[C@@H](O[C@H]3O[C@H](CO)[C@@H](O)[C@H](N)[C@H]3O)[C@H](N)C[C@@H]2N)[C@H](F)C[C@@H]1O [2',3'-dideoxy-2'-fluorokanamycin A] | – | – | – | – | – | – | – | – | – | – | – | – | – | – | – | – | – | – | – | – | antibacterial activities (in words) [1]: antibacterial activities against gram-positive and gram-negative bacteria, including certain resistant strains of bacteria
2 | NC[C@H]1O[C@H](O[C@H]2[C@H](O)[C@@H](O[C@H]3O[C@H](CO)[C@@H](O)[C@H](N)[C@H]3O)[C@H](N)C[C@@H]2N)[C@H](O)[C@@H](F)[C@@H]1O [3'-deoxy-3'-fluorokanamycin A] | – | – | – | – | – | – | – | – | – | – | – | – | – | – | – | – | – | – | – | – | antibacterial activities (in words) [1]: effective also against kanamycin-resistant bacteria
3 | NC[C@H]1O[C@H](O[C@H]2[C@H](O)[C@@H](O[C@H]3O[C@H](CO)[C@@H](O)[C@H](N)[C@H]3O)[C@H](N)C[C@@H]2N)[C@H](N)[C@@H](F)[C@@H]1O [3'-deoxy-3'-fluorokanamycin B] | – | – | – | – | – | – | – | – | – | – | – | – | – | – | – | – | – | – | – | – | antibacterial activities (in words) [1]: antibacterial activities against various gram-positive and gram-negative bacteria, including resistant strains
4 | NC[C@H]1O[C@H](O[C@H]2[C@H](F)[C@@H](O[C@H]3O[C@H](CO)[C@@H](O)[C@H](N)[C@H]3O)[C@H](N)C[C@@H]2N)[C@H](N)[C@@H](O)[C@@H]1O [5-deoxy-5-fluorokanamycin B] | – | – | – | – | – | – | – | – | – | – | – | – | – | – | – | – | – | – | – | – | antibacterial activities relative to kanamycin B ([1]; over kanamycin B): enhanced or improved advantageously over kanamycin B
5 | NC[C@@H](F)[C@H](O)C(=O)N[C@@H]1C[C@H](N)[C@@H](O[C@H]2O[C@H](CN)[C@@H](O)C[C@H]2N)[C@H](O)[C@H]1O[C@H]1O[C@H](CO)[C@@H](O)[C@H](N)[C@H]1O [Invention Compound No. 6, 1-N-{(2R,3R)-4-Amino-3-fluoro-2-hydroxybutyryl}-3'-deoxykanamycin B] | 0.39 (≈ 0.665 µM) | 1.56 (≈ 2.66 µM) | 0.78 (≈ 1.33 µM) | 3.12 (≈ 5.32 µM) | 0.39 (≈ 0.665 µM) | < 0.2 | 0.78 (≈ 1.33 µM) | < 0.2 | 3.12 (≈ 5.32 µM) | 0.39 (≈ 0.665 µM) | < 0.2 | 0.39 (≈ 0.665 µM) | 0.2 (≈ 0.341 µM) | 0.78 (≈ 1.33 µM) | 1.56 (≈ 2.66 µM) | 0.78 (≈ 1.33 µM) | 3.12 (≈ 5.32 µM) | 0.78 (≈ 1.33 µM) | 0.39 (≈ 0.665 µM) | 3.12 (≈ 5.32 µM) | –
6 | NC[C@@H]1CC[C@@H](N)[C@@H](O[C@H]2[C@H](O)[C@@H](O[C@H]3O[C@H](CO)[C@@H](O)[C@H](N)[C@H]3O)[C@H](NC(=O)[C@@H](O)[C@H](F)CN)C[C@@H]2N)O1 [Invention Compound No. 7, 1-N-{(2R,3R)-4-Amino-3-fluoro-2-hydroxybutyryl}-3',4'-dideoxykanamycin B] | 0.78 (≈ 1.37 µM) | 1.56 (≈ 2.73 µM) | 0.78 (≈ 1.37 µM) | 1.56 (≈ 2.73 µM) | 0.39 (≈ 0.683 µM) | 0.78 (≈ 1.37 µM) | 0.78 (≈ 1.37 µM) | 0.39 (≈ 0.683 µM) | 3.12 (≈ 5.47 µM) | < 0.2 | < 0.2 | < 0.2 | < 0.2 | 0.78 (≈ 1.37 µM) | 0.78 (≈ 1.37 µM) | 0.78 (≈ 1.37 µM) | 3.12 (≈ 5.47 µM) | 0.78 (≈ 1.37 µM) | < 0.2 | 3.12 (≈ 5.47 µM) | –
7 | NC[C@@H](F)[C@H](O)C(=O)N[C@@H]1C[C@H](N)[C@@H](O[C@H]2O[C@H](CN)[C@@H](O)[C@H](O)[C@H]2N)[C@H](F)[C@H]1O[C@H]1O[C@H](CO)[C@@H](O)[C@H](N)[C@H]1O [Invention Compound No. 8, 1-N-{(2R,3R)-4-Amino-3-fluoro-2-hydroxybutyryl}-5-deoxy-5-fluorokanamycin B] | 0.78 (≈ 1.29 µM) | 3.12 (≈ 5.16 µM) | 1.56 (≈ 2.58 µM) | 6.25 (≈ 10.3 µM) | 0.39 (≈ 0.645 µM) | 0.2 (≈ 0.331 µM) | 0.78 (≈ 1.29 µM) | 0.39 (≈ 0.645 µM) | 6.25 (≈ 10.3 µM) | 0.39 (≈ 0.645 µM) | < 0.2 | 0.39 (≈ 0.645 µM) | 0.39 (≈ 0.645 µM) | 0.78 (≈ 1.29 µM) | 3.12 (≈ 5.16 µM) | 6.25 (≈ 10.3 µM) | 1.56 (≈ 2.58 µM) | 12.5 (≈ 20.7 µM) | 0.2 (≈ 0.331 µM) | 3.12 (≈ 5.16 µM) | –
8 | NC[C@@H](F)[C@H](O)C(=O)N[C@@H]1C[C@H](N)[C@@H](O[C@H]2O[C@H](CN)[C@@H](O)C[C@H]2N)[C@H](F)[C@H]1O[C@H]1O[C@H](CO)[C@@H](O)[C@H](N)[C@H]1O [Invention Compound No. 9, 1-N-{(2R,3R)-4-Amino-3-fluoro-2-hydroxybutyryl}-5,3'-dideoxy-5-fluorokanamycin B] | 0.39 (≈ 0.663 µM) | 1.56 (≈ 2.65 µM) | 0.78 (≈ 1.33 µM) | 3.12 (≈ 5.3 µM) | 0.39 (≈ 0.663 µM) | 0.2 (≈ 0.34 µM) | 0.78 (≈ 1.33 µM) | 0.2 (≈ 0.34 µM) | 3.12 (≈ 5.3 µM) | 0.39 (≈ 0.663 µM) | < 0.2 | < 0.2 | < 0.2 | 0.78 (≈ 1.33 µM) | 0.78 (≈ 1.33 µM) | 0.78 (≈ 1.33 µM) | 3.12 (≈ 5.3 µM) | 1.56 (≈ 2.65 µM) | 0.2 (≈ 0.34 µM) | 3.12 (≈ 5.3 µM) | –
9 | NC[C@@H]1CC[C@@H](N)[C@@H](O[C@H]2[C@H](F)[C@@H](O[C@H]3O[C@H](CO)[C@@H](O)[C@H](N)[C@H]3O)[C@H](NC(=O)[C@@H](O)[C@H](F)CN)C[C@@H]2N)O1 [Invention Compound No. 10, 1-N-{(2R,3R)-4-Amino-3-fluoro-2-hydroxybutyryl}-5,3',4'-trideoxy-5-fluorokanamycin B] | 0.39 (≈ 0.681 µM) | 1.56 (≈ 2.72 µM) | 0.78 (≈ 1.36 µM) | 3.12 (≈ 5.45 µM) | 0.39 (≈ 0.681 µM) | < 0.2 | 0.39 (≈ 0.681 µM) | < 0.2 | 3.12 (≈ 5.45 µM) | 0.39 (≈ 0.681 µM) | 0.2 (≈ 0.349 µM) | < 0.2 | 0.2 (≈ 0.349 µM) | 0.78 (≈ 1.36 µM) | 0.78 (≈ 1.36 µM) | 0.78 (≈ 1.36 µM) | 1.56 (≈ 2.72 µM) | 0.78 (≈ 1.36 µM) | < 0.2 | 3.12 (≈ 5.45 µM) | –
10 | NC[C@@H](F)[C@H](O)C(=O)N[C@@H]1C[C@H](N)[C@@H](O[C@H]2O[C@H](CN)[C@@H](O)[C@H](O)[C@H]2O)[C@H](O)[C@H]1O[C@H]1O[C@H](CO)[C@@H](O)[C@H](N)[C@H]1O [Invention Compound Nos. 1] | – | – | – | – | – | – | – | – | – | – | – | – | – | – | – | – | – | – | – | – | survival of mice (mice): all mice surrived
